Measured values reported in patent US20250073209A1, “COVALENT TARGETING OF RhoA FOR CANCER THERAPY” (The University of Hong Kong, priority 2023, published 2025).
pIC50: −log10 of the molar value.

Assays:
[1] = test system: HT29 cells with C16 Å knock-in; assay: Wound healing assay on HT29 cells with RhoA C16A knock-in; type: cell-based, human; settings: 48 h
Protocol: For wound healing assay, HT29 cells were seeded in 90% confluency, a wound was scratched using a P-20 tip the next day. Cell debris was washed with PBS then aspirated. Then, complete DMEM medium with CL16 or Rhosin with corresponding concentration was added to the cells. Wound closure was recorded every 24 hours under light microscope with 10× objective and measurement of wound area was made by ImageJ.
HT29 cells with RhoA C16 Å knock-in were prepared by BrainVTA using the CRISPR-Cas9 technique. Briefly, HT29 cells were transfected with RhoA construct with mutated loci in CRISPR/Cas9 vector (U6-sa-sgRNA) using PEI. Cells were subsequently selected with 2 μg/mL puromycin and 800 μg/mL neomycin for 2 weeks. Monoclonal cells were then selected, propagated and subjected to Sanger sequencing to validate the homozygous C16 Å amino acid substitution ([…]) in RhoA gene.
The effects of CL16 in HT29 cells expressing RhoA WT protein and HT29 cells with RhoA C16 Å knock-in by CRISPR-Cas9 were investigated, respectively, to validate the molecular mechanism of RhoA inhibition and anti-cancer properties from CL16. […] HT29 cells expressing RhoA WT or C16 Å protein were incubated with solvent vehicle, CL16 or Rhosin in complete medium for 24 h. The cells were then washed, lysed, subjected to rhotekin pull-down and immunoblotted. […]

SW620 spheroid = assay: Spheroid formation assay, SW620; type: cell-based, human
Protocol: FIGS. 5A-5B are graphs showing the anticancer effects of CL16 in HT29 (FIG. 5A) and SW620 (FIG. 5B) spheroids. HT29 spheroid or SW620 spheroid were treated with CL16 at the indicated concentrations for 10 days. The spheroids were then imaged by microscope using 10× objective and the size was determined by ImageJ.
5,000 cells of HT29 and SW620 cells were inoculated in serum-free DMEM/F12 medium with 20 ng/mL […] growth factor (EGF) in 96-well round-bottom low-affinity plate (Nunc). Medium was supplemented with CL16 or Rhosin when spheroid has formed an opaque core. Morphology was recorded under a light microscope with 10× objective.
To further investigate the anticancer effects of CL16, HT29 and SW620 cells were inoculated as spheroids in low-affinity plate with 20 ng/mL EGF, and incubated with different concentrations of CL16 or Rhosin.

HCT116 cells = assay: Flow cytometry cell cycle analysis; type: cell-based, human; settings: HCT116, 24 h
Protocol: HCT116 cells were seeded onto 6-well plates (500,000 cells) and cultured overnight in complete medium at 37° C. with 5% CO2. After treatment with DMSO control or CL16 at the indicated concentration for 24 h, cells were harvested by trypsin digestion, washed with PBS, and fixed in 70% cold ethanol on ice for 30 minutes. The cells were then centrifuged at 250g for 5 min and resuspended in staining buffer (PBS with 0.05% Triton X-100) containing propidium iodide (50 μg/mL) and RNase (100 μg/mL) for 30 min at 37° C. in the dark. The cells were then filtered through a 40 μm strainer and analyzed by flow cytometry. Representative FACS plots were developed to illustrate the gating strategy in studying cell cycle. The NovoCyte Advanteon BVYG analyzer was used to acquire cell events, and the data were processed using NovoExpress software.
The molecular mechanisms of anticancer effects from CL16 were investigated. […] Immunoblotting of cell cycle checkpoint proteins in HCT116 cells underwent CL16 treatment for 24 h.

FLAG-RhoA = biological target: T1, FLAG-RhoA (Homo sapiens, UniProt P61586); assay: CL16-alkyne labeling of FLAG-RhoA in HCT116 cells (anti-FLAG IP, CuAAC, in-gel fluorescence); type: cell-based; settings: pre-incubation 2 h
T1 construct: expressed in transfected cells; host or cells: HCT116
Protocol: HCT116 cells transiently expressing FLAG-RhoA were pre-treated with solvent vehicle or CL16 for 2 h, followed by the incubation with CL16-alkyne in complete medium for another 2 h. The cells were then lysed and subjected to immunoprecipitation by anti-FLAG beads. The enriched proteins were reacted with rhodamine azide through copper-catalyzed azide-alkyne cycloaddition (CuAAC), boiled with sampling buffer and separated by SDS-PAGE. The protein bands were then visualized by their in-gel fluorescence or blotted for RhoA. […] HCT116 cells were pre-treated with solvent vehicle or CL16 for 2 h, followed by the incubation with CL16-alkyne in complete medium for another 2 h. The cells were then lysed, reacted with rhodamine azide through CuAAC, boiled with sampling buffer, separated by SDS-PAGE and imaged. […]
To identify protein target and any off-targets of CL16 in CRCs, a molecular probe of CL16, CL16-alkyne (FIG. 6A), was synthesized. […] The protein bands were then visualized by their in-gel fluorescence or blotted for RhoA. […] The probe-labeled proteins were installed with rhodamine through CuAAC, and visualized by their in-gel fluorescence after SDS-PAGE. A protein band with strong fluorescence was found at −22 kDa in the sample incubated with CL16-alkyne only, in line with the molecular weight of RhoA (FIG. 6C).

T1 sequence (P61586 whole entry): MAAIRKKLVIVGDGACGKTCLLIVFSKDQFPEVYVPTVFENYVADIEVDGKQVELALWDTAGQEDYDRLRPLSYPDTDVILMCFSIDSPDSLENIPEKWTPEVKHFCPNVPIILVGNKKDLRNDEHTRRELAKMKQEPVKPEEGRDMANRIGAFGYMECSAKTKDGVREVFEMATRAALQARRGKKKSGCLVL

competition with CL16-alkyne labeling of FLAG-RhoA (FLAG-RhoA): competed with the alkyne probe labeling
Structure (SMILES): O=C(CCl)N1N=C(c2cc3ccccc3o2)CC1c1ccco1 (centres unmarked) [CL16]
cell migration [1]: no inhibitory effects | growth of SW620 spheroids (SW620 spheroid; 20 ng/mL EGF, low-affinity plate): significant inhibitions in the growth | pIC50 (SW620 spheroid; Homo sapiens, SW-620, 240 h, 10 days, read-out: cytotoxic IC50 in SW620 spheroids): 5.39 | G2 phase cell population (HCT116 cells): significant increase in G2 phase cell population
